Measurements from patent US12138322B2, “Method of preventing the development of melanoma” (Vector Vitale IP LLC, priority 2019, dated 2024).
Marks after values point to notes of the source that are not given here.

Tested on: B16 melanoma cells
Assay: Experimental model of hematogenous B16 melanoma metastasis (lungs), intravenous administration
Assay type: in vivo, C57Bl mice
Conditions: IV 60 μg/mouse; for Number of animals in the group with metastases / Number of metastases/mouse (M ± m) / Volume of metastases/mouse (M ± m): lungs at day 26
Description: An experimental model of hematogenous metastasis was used in the experiment which allowed for the inoculation of B16 melanoma cells. The characteristic of these cells is given in Example 1. The cells were cultured in vitro under standard conditions. For transplantation, tumor cells were removed from the substrate with 0.02% Versene solution and the suspension cellularity and viability were evaluated in the presence of trypan blue in a hemocytometer and the suspension was adjusted to a concentration of […]. Melanoma cells were injected intracutaneously (IC) in 0.05 ml of suspension (0.5×10^6 cells/mouse) into the back area of the animal. Part of the coat on the back of mice was removed with a depilatory cream at 24 hours before tumor cell inoculation. Cells isolated from B16 mouse melanoma were used in the experiment. Cells were cultured in vitro under standard conditions. For inoculation, tumor cells were removed from the substrate with 0.02% Versene solution. The cellularity and viability of the obtained cell suspension were evaluated with a hemocytometer in presence of a trypan blue. Cell concentration was adjusted with saline to 1×10^6 cells/ml. Melanoma cells were injected IV in 0.2 ml of suspension (0.2×10^6 cells/mouse) into the lateral tail vein.
^64Zne(Asp)2 was dissolved in deuterium-depleted water. The composition was injected intravenously using a microinjection syringe at a dose of 60 μg of ^64Zne/mouse: two injections at a dose of 30 μg/mouse, each in a volume of 0.3 ml (0.6 ml in total), for 4 hours. The injections were given every other day for 10 days (5 injections in total). The first injection of the inventive composition was given 45 minutes or 24 hours after inoculation of tumor cells. At day 26 after IV injection of tumor cells the lungs were excised from all animals in each group and the number and volume of metastases were then determined. C57Bl mice (8 mice per group) at the age of 12-14 weeks, weighing 25-27 g were used in the experiment. The conditions in which animals were maintained are described in Example 1 above.
The ^64Zne(Asp)2 composition was injected intravenously into the animal's lateral tail vein using a Micro-Fine Plus microinjection syringe (Becton Dickinson). The injection site was cleaned with 96% ethanol.
The animals were divided into experimental groups as follows: • Group No. 1: control group, mice injected IV with B16 melanoma cells+IV injection of the solvent (deuterium-depleted water); • Group No. 2: mice injected IV with B16 melanoma cells+IV injection of ^64Zne(Asp)2 24 hours after the tumor cells were inoculated; • Group No. 3: mice injected IV with B16 melanoma cells+IV injection of ^64Zne(Asp)2 45 minutes after the tumor cells were inoculated
On day 26 after IV injection of tumor cells the lungs were excised from all animals in each group and the number and volume of metastases were then determined.
The volume of metastases was calculated using the following formula for the volume of a sphere:
V= 4/3×πr^3, where V is the metastasis volume (mm^3); r is the metastasis radius (mm).

[1] = first injection 45 min after tumor cells were inoculated
[2] = first injection 24 hours after tumor cells were inoculated

N[C@@H](CC(=O)[O-])C(=O)[O-].[Zn+2] [^64Zne(Asp)2, Zinc L-aspartate]
number and volume of metastases vs. control (45 min or 24 hours after inoculation): statistically significant decrease | Number of animals in the group with metastases [1]: 75% | Number of metastases/mouse (M ± m) [1]: 4 ± 2 | Volume of metastases/mouse (M ± m) [1]: 2.5 ± 1.7* mm^3 | Number of animals in the group with metastases [2]: 75% | Number of metastases/mouse (M ± m) [2]: 6.4 ± 2.5 | Volume of metastases/mouse (M ± m) [2]: 3.3 ± 2* mm^3
